We go through one molecule from paper PMC8646019, “Azvudine is a thymus-homing anti-SARS-CoV-2 drug effective in treating COVID-19 patients” (Signal Transduction and Targeted Therapy, 2021).

Molecules are shown by their SMILES.

For data set [1], the system named is SARS-CoV-2. Nature of the data set: Multi-color immunofluorescence staining and tissue cytometry (Tissue FAXS) of infected rhesus macaque tissues. The format is in vivo, rhesus macaques. From the text: To further verify the antiviral effect of FNC in the thymus, viral S-protein in the thymus was detected with immune staining. […] Tissue ACE2 was stained red, and viral S-protein was stained green. More green signals were detected in the thymus of the untreated monkey than in the FNC-treated one. Viral S-protein was quantitatively measured in the thymus with the Tissue FAXS platform and Tissue Quest software (Tissue Gnostics).[10],[26]–[30] […] The results of all eight monkeys are shown in Supplementary Fig. 10. […] Further evaluation of thymus cells undergoing programmed death was done with TUNEL staining, followed by quantitation with Tissue FAXS platform and Tissue Quest software (Tissue Gnostics, described in Methods). As shown in Supplementary Fig. 11, the number of apoptotic thymus cells from the untreated virus (+) monkeys was much higher than that from the FNC-treated ones.
Fig. 5 FNC-protected thymus from the damage by SARS-CoV-2 infection. By the end of the experiment, the RM monkeys have practiced euthanasia, and the thymus samples were collected. a The representative images of the multi-color immunofluorescent staining were for ACE2 (red) and S protein (green) in the thymus of the RM monkeys that were inoculated with SARS-CoV-2 and treated or untreated with FNC. The regions of interest (ROI) are boxed in white, and their magnified photos are shown in the middle, with a decomposition diagram on the right. […] The regions of interest (ROI) are boxed in white, and their magnified photos are shown below. Data are presented as mean ± SEM (n = 4), *p < 0.05, FNC-treated group vs. untreated group, by Mann–Whitney U test TEXT PRINTED IN THE PICTURE: (b) FNC: ACE2 Mean Intensity / ACE2 Area (um2): 26.43%; S-protein Mean Intensity / S protein Area (um2): 9.83% DOUBTS OF THE COPYIST ABOUT THIS PICTURE: Panel b prints no group label. […] They are left out because an untreated control is not a substance. / The percentages in panel b have no printed measure. The axis titles of each plot were used as the measure.
Tyramide Signal Amplification (TSA)^3 method was used for single staining of IL-4, IL-10, IL13, RORγt and tunnel; double staining of CD3 and CD20, ACE2 and S-protein; as well as triple staining of CD3, CD4 and CD8; ACE2, S-protein and N-protein. In brief, for each marker, the samples were treated with rabbit primary antibody and then incubated with HRP-conjugated goat anti-rabbit secondary antibody. After washing, slides were incubated with fluorescent reagent then heated with microwave oven to remove the combined antibodies. The antibodies were in Table S5.
As described by Kaneko and colleagues,^4 microscopy-based multi color tissue cytometry was applied for quantitative analysis. In brief, images of the tissue specimens were acquired through the Tissue FAXS platform (Tissue Gnostics).^5,6 The area of the detected tissue was acquired as a digital gray scale image in four channels with filter settings for FITC, Cy3, Cy5 and DAPI. Cells of each phenotype were identified and quantitated, relative to the positive controls.

A short description of data set [2]: Biodistribution and metabolism of FNC in rats (UHPLC-MS/MS). The settings on record: male, Sprague-Dawley, in vivo, rat, FNC 5 mg/kg oral, average n=5, read-out: Concentration in kidney. How it is done: Fig. 2 Thymus-homing distribution and metabolism of FNC after oral administration in rats. Twenty-five male Sprague–Dawley rats were orally administered with FNC at a single dose of 5 mg/kg. At the time point of 1, 2, 6, 12, and 24 h after drug administration, 5 rats were dissected. The blood, as well as the heart, liver, spleen, lung, kidney, brain, thymus, testis, and epididymis, were collected. Peripheral blood mononuclear cells (PBMCs) were isolated from blood using Histopaque-1083. The distribution of FNC in plasma, PBMCs, and the different tissues was evaluated through UHPLC–MS/MS analysis performed on an UHPLC system (1290 series, Agilent Technologies, USA) coupled to a triple quadrupole mass spectrometer (Agilent 6470 QQQ). a Metabolic pathway of FNC. b FNC distribution in tissues and plasma (5 mg/kg, oral). c FNC-TP levels in the blood (5 mg/kg, oral). d FNC-TP levels in tissues (5 mg/kg, oral). e FNC and its phosphate metabolites (FNC-MP, FNC-DP, and FNC-TP) in the thymus (5 mg/kg). f FNC and its phosphate metabolites in PBMCs (5 mg/kg).
25 male Sprague-Dawley rats (200 ± 15 g) were purchased from Vital River Laboratories Co., LTD (Beijng, China). The animals were housed under specific pathogen-free conditions (12 h light/12 h dark photoperiod, 25 ± 2°C, 50±5% relative humidity). All rats were allowed to acclimate for 1 week before experiments. Research was conducted in accordance with all institutional guidelines and ethics and approved by the Laboratories Institutional Animal Care and Use Committee of the Chinese Academy of Medical Sciences and Peking Union Medical College.
Rats were divided randomly into five groups with five rats in each, and were administered with azvudine at a single dose of 5 mg/kg. At the time point of 1h, 2h, 6h, 12h and 24h after drug administration, rats in one group were dissected with euthanization and blood samples were collected using heparin as an anticoagulant. 0.5 ml of blood was transferred to another 1.5ml eppendorf tube to obtain plasma by centrifugation (3500 r/min ×15 min). The tissues, including heart, liver, spleen, lung, kidney, brain, thymus, testis, and epididymis, were collected, and washed with cold 0.9% normal saline, and then kept at -80°C until analysis.
Peripheral blood mononuclear cells (PBMCs) were isolated from blood using Histopaque-1083 according to the manufacturer’s protocol. Firstly, 2 mL of blood collected in heparin sodium tube was diluted with 2 mL of PBS solution. Then, 4mL of diluted blood was layered on top of 4 mL Histopaque-1083 and centrifuged for 30 min at 2000 r/min. PBMCs were then aspirated, washed twice with PBS solution, suspended in PBS, and counted with a hemocytometer. Furtherly, PBMCs were centrifuged (2000 r/min ×10 min), lysed with 1ml of cold 80% methanol for 12h, then ultrasonic for cell disruption (3min). Finally, the cell lysates were stored in -80°C until sample preparation.
Tissue samples were weighed and 2-fold volume of 0.9% saline containing phosphatase inhibitor was added to prepare the homogenate on the ice. Then tissue homogenate was ultrasonic extracted for 5 min in the ice bath. 200μL of plasma or tissue homogenate was transferred into a 1.5 ml eppendorf tube and added 600 μL of methanol solution with internal standards. The sample was vortexed for 5 min and kept at 4°C for 15min, then centrifuged at 13000r/min for 10 min (4°C). […]

The mark [3] stands for this setting: FNC-treated monkeys, n = 4, Tissue FAXS.

Consider `[N-]=[N+]=N[C@]1(CO)O[C@@H](n2ccc(N)nc2=O)[C@@H](F)[C@@H]1O` [FNC, 2′-deoxy-2′-β-fluoro-4′-azidocytidine], for which the “viral S- and N-protein signal in the lung (immune staining)” value in data set [1] (FNC-treated monkeys vs untreated) is “noticeably reduced”. Moreover, in data set [1] (setting [3]), the “S-protein-positive cells in thymus, proportion” value is given as 8.36 ± 4.84%; the “absolute numbers of ACE2+ cells in thymus” value is listed as 38,929 ± 19,470 cells; the “number of S-protein-positive cells in thymus” value was determined as 8941 ± 5436 cells; the “relative proportion of ACE2+ cells in thymus” value was 35.96 ± 16.90%. Besides, the concentration at 1 h in data set [2] (1 h) was 515 ng/g. In addition, the concentration at 2 h in data set [2] (2 h) was 798 ng/g. In addition, the concentration at 6 h in data set [2] (6 h) worked out at 269 ng/g. Besides, the concentration at 12 h in data set [2] (12 h) stood at 76.5 ng/g. The concentration at 24 h in data set [2] (24 h) turned out to be 78.1 ng/g.
